Marks after values point to notes of the source that are not given here.
Experiments:
[1] = target: Acetylcholinesterase (AChE) (Homo sapiens, UniProt P22303); assay: Acetylcholinesterase inhibition screening; type: biochemical
[2] = Antioxidant assay by DPPH scavenging
male Wistar rats = type: in vivo, rat
[3] = tested on: liver, kidneys, heart, and brain; assay: Histopathological examination of chronic toxicity study; type: in vivo, mice; details: H&E
AD-induced rats = assay: T-maze test in AlCl3-induced AD rats; type: in vivo, rat; details: Treatment 4 weeks; for T-maze test, time taken to reach food: seconds, n = 10
[4] = tested on: Alzheimer's disease-induced rats; assay: Beam balance test in AlCl3-induced AD rats; type: in vivo, rat; details: Treatment 4 weeks
[5] = tested on: brain tissue of AD-induced rats; assay: Brain oxidative stress markers; type: in vivo, rat
Bcl-2 gene = Bcl-2 gene expression in brain samples of AD induced rats; type: in vivo, rat; details: AD rats treated vs AD rats
Bax gene = Bax gene expression in brain samples of AD induced rats; type: in vivo, rat; details: AD rats treated vs AD rats
Tau gene = Tau gene expression in brain samples of AD induced rats; type: in vivo, rat; details: AD rats treated vs AD rats
Wistar rats = assay: Acute toxicity, oral, rats
[6] = male rats, 10 mg per kg body weight
[7] = male rats, 10 mg per kg body weight, one month

Chain of Acetylcholinesterase (AChE) (P22303 32-614, species assumed): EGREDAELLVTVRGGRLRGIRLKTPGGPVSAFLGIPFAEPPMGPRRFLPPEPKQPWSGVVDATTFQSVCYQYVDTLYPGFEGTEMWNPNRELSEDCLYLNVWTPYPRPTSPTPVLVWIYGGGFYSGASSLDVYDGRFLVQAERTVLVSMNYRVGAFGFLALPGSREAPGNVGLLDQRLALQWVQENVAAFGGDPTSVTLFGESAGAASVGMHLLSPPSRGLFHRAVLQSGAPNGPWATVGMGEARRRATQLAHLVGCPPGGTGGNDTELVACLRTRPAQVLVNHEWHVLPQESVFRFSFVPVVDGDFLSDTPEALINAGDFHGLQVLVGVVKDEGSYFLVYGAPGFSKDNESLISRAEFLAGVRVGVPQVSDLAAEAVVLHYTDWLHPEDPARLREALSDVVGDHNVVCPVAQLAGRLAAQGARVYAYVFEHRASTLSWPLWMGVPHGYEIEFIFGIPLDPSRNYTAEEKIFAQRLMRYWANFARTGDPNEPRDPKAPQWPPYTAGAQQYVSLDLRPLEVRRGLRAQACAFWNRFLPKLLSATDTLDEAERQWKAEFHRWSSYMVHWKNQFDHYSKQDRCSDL

In the case of `Cc1cc(=O)oc2cc(OCC(=O)NN=C3CCCc4ccccc43)ccc12` [Compound 4a, N′-(3,4-dihydronaphthalen-1(2H)-ylidene)-2-((4-methyl-2-oxo-2H-chromen-7-yl)oxy)acetohydrazide], the IC50 [1] is reported as 13.1 µM, the “Percent of antioxidant activity (DPPH scavenging)” value (“Percent of antioxidant activity” for short) ([2]; Concentration (0.01 mg)) is reported as 31.8 ± 0.2% and the “Percent of antioxidant activity” value ([2]; Concentration (0.05 mg)) is reported as 40.9 ± 3.1%.

In the case of `Cc1cc(=O)oc2cc(OCC(=O)NN=C3C(=O)Nc4ccccc43)ccc12` [Compound 4b, 2-((4-Methyl-2-oxo-2H-chromen-7-yl)oxy)-N′-(2-oxoindolin-3-ylidene) acetohydrazide], the IC50 [1] is reported as 20.9 µM, the “Percent of antioxidant activity” value ([2]; Concentration (0.01 mg)) is reported as 31.8 ± 1.2% and the “Percent of antioxidant activity” value ([2]; Concentration (0.05 mg)) is reported as 35.00 ± 1.00%.

With `Cc1cc(=O)oc2cc(OCC(=O)NN=C3CCc4ccccc43)ccc12` [Compound 4c, N′-(2,3-Dihydro-1H-inden-1-ylidene)-2-((4-methyl-2-oxo-2H-chromen-7-yl)oxy)acetohydrazide] the IC50 [1] was 2.21 µM, the “Percent of antioxidant activity” value ([2]; Concentration (0.01 mg)) was 28.00 ± 0.4% and the “Percent of antioxidant activity” value ([2]; Concentration (0.05 mg)) was 57.14 ± 2.77%. For the same molecule, the “Signs of chronic toxicity” value (male Wistar rats; 10 mg per kg b.wt orally, male Wistar rats, one month) was “didn't see any indication of harmfulness”, the “Change in blood profile levels vs control rats” value (male Wistar rats; 10 mg per kg b.wt, one month) was “insignificant changes” and the “Change in creatinine level vs untreated group” value (male Wistar rats; 10 mg per kg b.wt, one month) was “significant increase”. The “Change in hepatic enzyme levels (AST, ALT, and ALP) vs control group” value (male Wistar rats; 10 mg per kg b.wt, one month) was “insignificant difference”, the “Change in total urea level vs untreated group” value (male Wistar rats; 10 mg per kg b.wt, one month) was “insignificant change” and the ALP (male Wistar rats; [6]) was 136.00 ± 9.00 ^a U/l. The ALT (male Wistar rats; [6]) was 79.00 ± 4.40 ^a U/l, the AST (male Wistar rats; [6]) was 32.00 ± 1.20 ^a U/l and the Creatinine (male Wistar rats; [6]) was 2.80 ± 0.07 mg/dL. The Urea (male Wistar rats; [6]) was 20.00 ± 1.57 mg/dL, the Haematocrit (male Wistar rats; [7]) was 45.00 ± 1.87 ^a % and the “Hemoglobin (Hb)” value (male Wistar rats; [7]) was 14.58 ± 0.59 ^a g L^−1. For the same molecule, the Lymphocyte (male Wistar rats; [7]) was 7.62 ± 0.66 ^a 10^3 cm^−1, the MPV (male Wistar rats; [7]) was 8.66 ± 0.19 ^a fL and the “Mean corpuscular hemoglobin (MCH)” value (male Wistar rats; [7]) was 17.78 ± 0.88 ^a pg. For the same molecule, the “Mean corpuscular hemoglobin concentration (MCHC)” value (male Wistar rats; [7]) was 33.98 ± 0.25 ^a g dL^−1, the “Mean corpuscular volume (MCV)” value (male Wistar rats; [7]) was 59.00 ± 0.03 ^a fL and the Monocyte (male Wistar rats; [7]) was 1.93 ± 0.06 ^a 10^3 cm^−1. For the same molecule, the Neutrophils (male Wistar rats; [7]) was 2.39 ± 0.09 ^a 10^3 cm^−1, the Platelets (male Wistar rats; [7]) was 465.00 ± 12.00 ^a 10^3 mm^−1 and the RDW-CV (male Wistar rats; [7]) was 15.80 ± 0.19 ^a %. The “Red blood cells (RBCs)” value (male Wistar rats; [7]) was 8.00 ± 0.08 ^a million cells per mm, the “White blood cells WBCs” value (male Wistar rats; [7]) was 10.89 ± 1.90 ^a 10^3 cmm^−1 and the “Heart and brain histopathology” value [3] was “no histopathological damage”. The Kidney histopathology [3] was “no histopathological alterations”, the Liver histopathology [3] was “slight Kupffer cell proliferation” and the “T-maze test, % improvement” value (AD-induced rats) was 148.37%. For the same molecule, the “T-maze test, time taken to reach food” value (AD-induced rats) was 28.20 ± 1.80 Sc, the “Beam balance test time” value [4] was 8.99 ± 1.00 Sc and the “Beam balance test, % improvement” value [4] was 60.00%. For the same molecule, the GSH % improvement ([5]; AD-induced rats) was 27.17%, the MDA % improvement ([5]; AD-induced rats) was 90.64% and the GSH ([5]; AD-induced rats, n = 8) was 21.66 ± 1.21 mg per g tissues. For the same molecule, the MDA ([5]; AD-induced rats, n = 8) was 22.43 ± 1.66 mg per g tissues, the “GSH % change to disease” value ([5]; vs AD group) was 59.26% and the “MDA % change to disease” value ([5]; vs AD group) was 32.19%. The “Expression of Bcl-2 gene” value (Bcl-2 gene) was “improved expression”, the “Expression of Bax gene” value (Bax gene) was “reduced expression” and the “Expression of Tau gene” value (Tau gene) was “reduced expression”. The Mortality (Wistar rats; 50 mg per kg b.wt, rats) was “No mortality” and the Mortality (Wistar rats; 100 mg per kg b.wt, post 24 h, one rat of 4) was 25%.

With `Cc1cc(=O)oc2cc(OCC(=O)NN=Cc3ccc(C(=O)O)cc3)ccc12` [Compound 4d, 4-((2-(2-((4-Methyl-2-oxo-2H-chromen-7-yl)oxy)acetyl) hydrazineylidene)methyl) benzoic acid] the IC50 [1] was 3.15 µM, the “Percent of antioxidant activity” value ([2]; Concentration (0.01 mg)) was 4.5 ± 0.4% and the “Percent of antioxidant activity” value ([2]; Concentration (0.05 mg)) was 10.3 ± 0.33%.

For `COc1cc2c(cc1OC)C(=O)C(CC1CCN(Cc3ccccc3)CC1)C2` (centres unmarked) [Donepezil, reference compound], the “T-maze test, % improvement” value (AD-induced rats) was 181.70%, the “T-maze test, time taken to reach food” value (AD-induced rats) was 23.10 ± 1.70 Sc and the “Beam balance test time” value [4] was 9.80 ± 0.88 Sc. The “Beam balance test, % improvement” value [4] was 67.98%.

In the case of `O=C1O[C@H]([C@@H](O)CO)C(O)=C1O` [Vitamin C, ascorbic acid, reference compound], the “Percent of antioxidant activity” value ([2]; Concentration (0.01 mg)) is reported as 80.00 ± 5.00% and the “Percent of antioxidant activity” value ([2]; Concentration (0.05 mg)) is reported as 89.00 ± 6.99%.

From article PMC10280131 (RSC Advances, 2023)
